Measurements taken from patent publication US20140275234A1, “COMPOSITIONS AND METHODS OF USING CRYSTALLINE FORMS OF WORTMANNIN ANALOGS” (ONCOTHYREON INC., priority 2010, published 2014).

Experiments:
pulmonary fibrosis = settings: as described in WO 2010/118250; cited from earlier work
[1] = Water slurry at ambient temperature; assay type: physicochemical; settings: 0.5 g slurry in deionized water
Procedure: An initial solvent screen was performed on PX-866 to determine appropriate primary solvents and anti-solvents. Slurries and several precipitations were then performed utilizing several primary solvents and anti-solvents at 50 mg scale. […] The water slurry was then scaled up to 0.5 g and performed at ambient temperature. Since there was a concern for degradation taking place during the slurry at ambient temperature an additional slurry was performed on 0.5 g scale at 10° C. in an attempt to minimize any potential degradation.

[2] = test system: phosphatidylinositol-3-kinase (PI-3K); settings: cited from earlier work
[3] = Solubility Screening Test I and II, HPLC of supernatant; assay type: physicochemical
Procedure: For each solvent, a 100 μL glass crimp-top vial was charged with ˜10 mg of PX-866 and sealed. By syringe, 2 parts of the appropriate solvent was added. If PX-866 dissolved completely, no further work was done. If necessary, more solvent was added to obtain a supernatant. The crimped vial was sonicated for 15 minutes and then centrifuged for 30 seconds. 1.0 μL of the supernatant was removed by syringe and added to a sealed HPLC vial containing 500 μL of acetonitrile. The same saturated solution was then heated for 30 minutes to a set point of 50° C., centrifuged again, and a second HPLC vial was prepared with 1.0 μL of the supernatant at 50° C. In the case of toluene, anisole, o-xylene, propyl acetate, 4-methyl-2-pentanone, and 1-pentanol the room temperature supernatant was transferred to a clean vial and cooled down to 0° C., and then −20° C. For each temperature, an HPLC vial was prepared with 1.0 μL of the supernatant. HPLC samples were run using the method described below and the 254 nm AUC was plotted on a calibration curve to obtain solubility data.
The samples that crystallized were cooled to 0° C. and subsequently −20° C. to acquire two additional temperature points. Solubility in the aliphatic solvents (propyl acetate, 4-methyl-2-pentanone, and 1-pentanol) decreased drastically with temperature from RT to −20° C.

[4] = Initial solvent screen, visual dissolution on adding solvent in 50 μL portions; assay type: physicochemical; settings: for Soluble: RT
Procedure: This initial solvent screen of PX-866 in 18 solvents was executed to select appropriate solvents for slurry experiments. Approximately 1-2 mg of the material was placed in 2 dram glass vials and the chosen solvents were added in 50 μL portions to determine the minimum amount of solvent needed for dissolution. The vials were shaken at ambient temperature and visually inspected between each addition to determine if complete dissolution had taken place.
To estimate the ratio of primary solvent to anti-solvent necessary for use in the slurry experiments, heptane or water was then added to the dissolved PX-866 in […], portions until a turbid solution was formed or solids precipitated out. […] The exceptions occurred when MeCN and AcOH were used as the primary solvent as the product oiled out upon anti-solvent addition.

[5] = as described in WO 2011/153488 and WO 2011/153495; cited from earlier work
[6] = Formulation and handling studies of amorphous and crystalline forms; assay type: physicochemical
Description: In some embodiments, crystalline forms of Compound 1 and/or analogs thereof show less variability in vitro dissolution profiles as compared to the amorphous form. In some instances, crystalline forms of Compound 1 and/or analogs thereof have better flowability as compared to the amorphous form.

C=CCN(/C=C1/C(=O)O[C@H](COC)[C@@]2(C)C1=C(O)C(=O)C1=C2[C@H](OC(C)=O)C[C@]2(C)C(=O)CC[C@@H]12)CC=C [PX-866, (4S,4aR,5R,6aS,9aR, Z)-1-((diallylamino)methylene)-11-hydroxy-4-(methoxymethyl)-4-a,6a-dimethyl-2,7,10-trioxo-1,2,4,4a,5,6,6a,7,8,9,9a,10-dodecahydroindeno[4,5-h]isochromen-5-yl acetate]
efficacy in pulmonary fibrosis (pulmonary fibrosis): has shown efficacy | purity after water slurry [1]: notable decrease in PX-866 purity | inhibition of PI-3K [2]: irreversibly inhibits | Solubility ([3]; 1,1,1,3,3,3,hexafluoro-2-propanol, RT): >500 @ RT mg/mL | Solubility ([3]; 1,1,1-trichloroethane, RT): >500 @ RT mg/mL | Solubility ([3]; 1,1,2,2-tetrachloroethane, RT): >500 @ RT mg/mL | Solubility ([3]; 1,4-dioxane, RT): >500 @ RT mg/mL | Solubility ([3]; 1-butanol, RT): >500 @ RT mg/mL | Solubility ([3]; 1-octanol, RT): 90.6 mg/mL | Solubility ([3]; 1-pentanol, 0° C.): 22.8 mg/mL | Solubility ([3]; 1-pentanol, RT): 84.4 mg/mL | Solubility ([3]; 1-pentanol, −20° C.): 2.4 mg/mL | Solubility ([3]; 2,2,2-trifluoroethanol, RT): >500 @ RT mg/mL | Solubility ([3]; 2,2,4-trimethylpentane, RT): 0.37 mg/mL | Solubility ([3]; 2-butanone, RT): >500 @ RT mg/mL | Solubility ([3]; 2-ethoxyethanol, RT): >500 @ RT mg/mL | Solubility ([3]; 4-methyl-2-pentanone, 0° C.): 33.4 mg/mL | Solubility ([3]; 4-methyl-2-pentanone, RT): 38.4 mg/mL | Solubility ([3]; 4-methyl-2-pentanone, −20° C.): 8.5 mg/mL | Solubility ([3]; N-methyl-2-pyrrolidone, RT): >500 @ RT mg/mL | Solubility ([3]; acetone, RT): >500 @ RT mg/mL | Solubility ([3]; anisole, 0° C., supernatant after crystallization): 7.0 mg/mL | Solubility ([3]; anisole, RT, supernatant after crystallization): 9.9 mg/mL | Solubility ([3]; anisole, −20° C., supernatant after crystallization): 6.2 mg/mL | Solubility ([3]; benzyl alcohol, RT): 498.0 mg/mL | Solubility ([3]; butyl acetate, RT): >500 @ RT mg/mL | Solubility ([3]; chlorobenzene, RT): 15.6 mg/mL | Solubility ([3]; cumene, RT): 4.9 mg/mL | Solubility ([3]; di(ethylene glycol), RT): 374.8 mg/mL | Solubility ([3]; dibutyl ether, RT): 3.1 mg/mL | Solubility ([3]; dichloromethane, RT): >500 @ RT mg/mL | Solubility ([3]; diethyl ether, RT): 9.5 mg/mL | Solubility ([3]; diethylamine, RT): >500 @ RT mg/mL | Solubility ([3]; diisopropyl ether, RT): 4.2 mg/mL | Solubility ([3]; dimethylformamide, RT): >500 @ RT mg/mL | Solubility ([3]; dimethylsulfoxide, RT): 252.5 mg/mL | Solubility ([3]; ethanol, RT): >500 @ RT mg/mL | Solubility ([3]; ethanolamine, RT): >500 @ RT mg/mL | Comments: PX-866 in supernatant ([3]; ethanolamine, RT, solution turned dark orange): no PX-866 detected in | Solubility ([3]; ethyl acetate, RT): >500 @ RT mg/mL | Solubility ([3]; ethyl formate, RT): >500 @ RT mg/mL | Solubility ([3]; ethylene glycol, RT): 135.9 mg/mL | Solubility ([3]; glycerol, RT): 12.6 mg/mL | Solubility ([3]; heptanes, RT): 0.88 mg/mL | Solubility ([3]; hexanes, RT): 0.31 mg/mL | Solubility ([3]; isopentanol, RT): 228.2 mg/mL | Solubility ([3]; isopropyl acetate, RT): >500 @ RT mg/mL | Solubility ([3]; isopropyl alcohol, RT): >500 @ RT mg/mL | Solubility ([3]; m-xylene, RT): 4.5 mg/mL | Solubility ([3]; methanol, RT): >500 @ RT mg/mL | Solubility ([3]; methyl acetate, RT): >500 @ RT mg/mL | Solubility ([3]; methyl t-butyl ether, RT): 41.0 mg/mL | Solubility ([3]; methyltetrahydrofuran, RT): >500 @ RT mg/mL | Solubility ([3]; nitromethane, RT): >500 @ RT mg/mL | Solubility ([3]; o-xylene, 0° C., supernatant after crystallization): 7.3 mg/mL | Solubility ([3]; o-xylene, RT, supernatant after crystallization): 5.5 mg/mL | Solubility ([3]; o-xylene, −20° C., supernatant after crystallization): 5.7 mg/mL | Solubility ([3]; p-xylene, RT): 1.0 mg/mL | Solubility ([3]; pentane, RT): 0.79 mg/mL | Solubility ([3]; perfluorohexane, RT): 0.28 mg/mL | Solubility ([3]; propyl acetate, 0° C.): 54.8 mg/mL | Solubility ([3]; propyl acetate, RT): 84.6 mg/mL | Solubility ([3]; propyl acetate, −20° C.): 18.6 mg/mL | Solubility ([3]; sec-butyl ether, RT): 1.3 mg/mL | Solubility ([3]; t-Butanol, 30° C.): 340.0 mg/mL | Solubility ([3]; tetrahydrofuran, RT): >500 @ RT mg/mL | Solubility ([3]; toluene, 0° C., supernatant after crystallization): 2.7 mg/mL | Solubility ([3]; toluene, RT, supernatant after crystallization): 5.2 mg/mL | Solubility ([3]; toluene, −20° C., supernatant after crystallization): 2.6 mg/mL | Solubility ([3]; water, RT): 3.5 mg/mL | Comments: decomposition observed by HPLC ([3]; water, RT, solubility sample): Slightly soluble, significant decomposition | Soluble ([4]; AcOH, vial conc. 48.0 mg/mL): Yes | Soluble ([4]; Acetone, vial conc. 38.0 mg/mL): Yes | Soluble ([4]; Acetone, vial conc. 102.0 mg/mL (Table 2A)): Yes | Soluble ([4]; DCM, vial conc. 48.0 mg/mL): Yes | Soluble ([4]; DMF, vial conc. 56.0 mg/mL): Yes | Soluble ([4]; Dioxane, vial conc. 38.0 mg/mL): Yes | Soluble ([4]; EtOAc, vial conc. 38.0 mg/mL): Yes | Soluble ([4]; EtOH, vial conc. 56.0 mg/mL): Yes | Soluble ([4]; EtOH, vial conc. 164.0 mg/mL (Table 2A)): Yes | Soluble ([4]; Heptane, vial conc. 0.4 mg/mL): No | Soluble ([4]; IPA, vial conc. 28.0 mg/mL): Yes | Soluble ([4]; IPA, vial conc. 106.0 mg/mL (Table 2A)): Yes | Soluble ([4]; IPAc, vial conc. 32.0 mg/mL): Yes | Soluble ([4]; MECN, vial conc. 100.0 mg/mL (Table 2A)): Yes | Soluble ([4]; MEK, vial conc. 56.0 mg/mL): Yes | Soluble ([4]; MTBE, vial conc. 13.0 mg/mL): Yes | Soluble ([4]; MeCN, vial conc. 16.0 mg/mL): Yes | solubility at ambient temperature ([4]; MeCN, dioxane, acetone, MTBE, EtOH, EtOAc, IPAc, IPA, THF, MEK, DMF, AcOH, MeOH, toluene, DCM): good solubility | Soluble ([4]; MeOH, vial conc. 52.0 mg/mL): Yes | Soluble ([4]; MeOH, vial conc. 150.0 mg/mL (Table 2A)): Yes | Soluble ([4]; THF, vial conc. 52.0 mg/mL): Yes | Soluble ([4]; Toluene, vial conc. 56.0 mg/mL): Yes | Soluble ([4]; Water, vial conc. 0.3 mg/mL): Partially | Soluble ([4]; c-Hexane, vial conc. 0.3 mg/mL): No | Solubility ([4]; c-hexane, heptane, and water): limited or no solubility | efficacy in human trials [5]: has shown efficacy | stability in solution [6]: poor stability
